Measurements taken from patent US8471061B2 (priority 2004, dated 2013).
Like-named read-outs stand apart in the source and are kept apart here.

Key:
[1] = system: New Zealand white rabbits (males), shaved uninjured skin; conditions: in vivo
Experimental: (§1) Using three New Zealand white rabbits (males), a solution prepared by dissolving 0.5 g of 5-aminolevulinic acid phosphate in 0.5 ml of distilled water (pH 3.1) was applied for 4 hours to a 2.5 cm square area of the shaved uninjured skin of each animal which was then observed for 1, 24, 48 and 72 hours.

[2] = pH of solution of 0.5 g in 0.5 ml of distilled water; format: physicochemical
Experimental: as §1

[3] = system: cotton (variety; M-5 Acala); assay: Salinity tolerance improving effect; format: in vivo; design: key: salt damage: 0 = none, 5 = plant withered
Experimental: A porcelain pot of 12 cm in inner diameter having no drainage hole was filled with 600 g of upland soil, and 7 to 8 seeds of cotton seeds (variety; M-5 Acala) were sowed, covered with 1 cm in thickness of the soil and allowed to grow in a green house. Thereafter, general management was carried out, and at the time of leaflet development, a salinity improving agent containing each of the compounds to be tested with respective concentrations shown in Table 12 and 0.05% (v/v) of a spreader (Neoesterin: manufactured by Kumiai Chemical Industry) was prepared and was applied to foliage at an application volume of 100 liters per 10 are. Four days thereafter, sodium chloride in an amount which corresponds to 0 to 1.5% by weight per soil weight as shown in Table 12 was dissolved in 30 ml of water and added dropwise to the soil. By further continuing general cultivation, examination was carried out 23 days thereafter. the examination was carried out by naked eye observation, and the results of salt damage were evaluated based on the following 6 steps.
• 0: Absolutely no salt damage is observed. • 1: Very weak salt damage is observed. • 2: Weak salt damage is observed. • 3: Obvious salt damage is observed. • 4: Strong salt damage is observed. • 5: The plant body withered up due to salt damage.

[4] = system: Chlorella sp.; assay: Culturing of plankton; format: cell-based; conditions: 1 mM additive
Experimental: (§2) 5-Aminolevulinic acid nitrate was added, to a concentration of 1 mM (194 ppm), to 100 ml of a sterilized culture shown in Table 17 (components of the culture), and a Chlorella sp. was inoculated therein and cultured on a reciprocal shaker at 30° C. under aerobic and dark conditions to measure the amount of cells (OD 660).
as §2, with “acid hydrochloride” for “acid nitrate”, “mM (168” for “mM (194”, “of the” for “of a”, “and the” for “and a”
The Chlorella sp. was inoculated into 100 ml of the sterilized culture shown in Table 17 (components of the culture) and cultured on a reciprocal shaker at 30° C. under aerobic and dark conditions to measure the amount of cells (OD 660).

[5] = Degradation test by sterilization; format: physicochemical; conditions: 50 mg heat sterilized, 121° C., 20 minutes, 1.5 kgf/cm^2
Experimental: Firstly, 50 mg of 5-aminolevulinic acid p-toluenesulfonate or 5-aminolevulinic acid hydrochloride was heat sterilized (121° C., 20 minutes, 1.5 kgf/cm^2). After confirming that there is no change in weight before and after the sterilization, degree of degradation of 5-aminolevulinic acid before and after the sterilization was verified by the method described in a reference (Clin. Chem., 36/8, 1494 (1990)).

[6] = Acidity measurement of aqueous solutions with a pH meter; format: physicochemical; conditions: 1 to 1000 mM, 25° C., same concentration
Experimental: Aqueous 5-aminolevulinic acid phosphate solutions and aqueous 5-aminolevulinic acid hydrochloride solutions having a concentration of from 1 to 1000 mM were respectively prepared, and their acidity was measured at 25° C. using a pH meter.

[7] = system: female rats (Sprague-Dawley CD species); conditions: for Dead animals: 2000 mg/kg oral, per animal
Experimental: This test was carried out in accordance with the OECD Guideline No. 423 “Acute Oral Toxicity-Acute Toxicity Grading Method” (adopted on Dec. 17, 2001). Fasted female rats (Sprague-Dawley CD species) of 3 animals per group were treated with 5-aminolevulinic acid phosphate at a dose of 300 mg per kg body weight. In addition, other fasted female rats of two or more groups were treated at a dose of 2000 mg per kg body weight. They were observed after the administration continuously for 2 weeks.

[8] = treating concentration 10 ppm, NaCl 0 wt % per soil weight
[9] = treating concentration 10 ppm, NaCl 0.5 wt % per soil weight
[10] = treating concentration 10 ppm, NaCl 0.75 wt % per soil weight
[11] = treating concentration 10 ppm, NaCl 1 wt % per soil weight
[12] = treating concentration 10 ppm, NaCl 1.5 wt % per soil weight
[13] = treating concentration 30 ppm, NaCl 0 wt % per soil weight
[14] = treating concentration 30 ppm, NaCl 0.5 wt % per soil weight
[15] = treating concentration 30 ppm, NaCl 0.75 wt % per soil weight
[16] = treating concentration 30 ppm, NaCl 1 wt % per soil weight
[17] = treating concentration 30 ppm, NaCl 1.5 wt % per soil weight
[18] = treating concentration 100 ppm, NaCl 0 wt % per soil weight
[19] = treating concentration 100 ppm, NaCl 0.5 wt % per soil weight
[20] = treating concentration 100 ppm, NaCl 0.75 wt % per soil weight
[21] = treating concentration 100 ppm, NaCl 1 wt % per soil weight
[22] = treating concentration 100 ppm, NaCl 1.5 wt % per soil weight
[23] = treating concentration 300 ppm, NaCl 0 wt % per soil weight
[24] = treating concentration 300 ppm, NaCl 0.5 wt % per soil weight
[25] = treating concentration 300 ppm, NaCl 0.75 wt % per soil weight
[26] = treating concentration 300 ppm, NaCl 1 wt % per soil weight
[27] = treating concentration 300 ppm, NaCl 1.5 wt % per soil weight
[28] = male, New Zealand white, rabbit, 1 h
[29] = male, New Zealand white, rabbit, 24 h
[30] = male, New Zealand white, rabbit, 48 h
[31] = male, New Zealand white, rabbit, 72 h

Cl.NCC(=O)CCC(=O)O [5-aminolevulinic acid hydrochloride, reference compound]
judgement by the OECD Guideline from pH (animal test not carried out) ([1]; rabbit): judged corrosive | pH of solution [2]: ≤ 2.0 | salt damage evaluation [3, 8]: 0 | salt damage evaluation [3, 9]: 1 | salt damage evaluation [3, 10]: 1 | salt damage evaluation [3, 11]: 1 | salt damage evaluation [3, 12]: 2 | salt damage evaluation [3, 13]: 0 | salt damage evaluation [3, 14]: 1 | salt damage evaluation [3, 15]: 2 | salt damage evaluation [3, 16]: 3 | salt damage evaluation [3, 17]: 3 | salt damage evaluation [3, 18]: 0 | salt damage evaluation [3, 19]: 1 | salt damage evaluation [3, 20]: 1 | salt damage evaluation [3, 21]: 2 | salt damage evaluation [3, 22]: 3 | salt damage evaluation [3, 23]: 0 | salt damage evaluation [3, 24]: 0 | salt damage evaluation [3, 25]: 1 | salt damage evaluation [3, 26]: 1 | salt damage evaluation [3, 27]: 2 | amount of cells: OD 660 nm ([4]; Culture time 0 day): 1.8 | amount of cells: OD 660 nm ([4]; Culture time 1 day): 6.3 | amount of cells: OD 660 nm ([4]; Culture time 2 day): 12.5 | amount of cells: OD 660 nm ([4]; Culture time 3 day): 14.8 | Degradation degree (%) [5]: 6.6%

NCC(=O)CCC(=O)O.O=P(O)(O)O [5-aminolevulinic acid phosphate, 5-aminolevulinic Acid Phosphate]
acidity of aqueous solution (FIG. 1) [6]: lower than that of the aqueous 5-aminolevulinic acid hydrochloride solution | Dead animals ([7]; 0.5 hour after administration): 0 | Dead animals ([7]; 1 hour after administration): 0 | Dead animals ([7]; 2 hour after administration): 0 | Dead animals ([7]; 4 hour after administration): 0 | Dead animals ([7]; day 1 after administration): 0 | Dead animals ([7]; day 2 after administration): 0 | Dead animals ([7]; day 3 after administration): 0 | Dead animals ([7]; day 4 after administration): 0 | Dead animals ([7]; day 5 after administration): 0 | Dead animals ([7]; day 6 after administration): 0 | Dead animals ([7]; day 7 after administration): 0 | Dead animals ([7]; day 8 after administration): 0 | Dead animals ([7]; day 9 after administration): 0 | Dead animals ([7]; day 10 after administration): 0 | Dead animals ([7]; day 11 after administration): 0 | Dead animals ([7]; day 12 after administration): 0 | Dead animals ([7]; day 13 after administration): 0 | Dead animals ([7]; day 14 after administration): 0 | death ([7]; 300 and 2000 mg per kg body weight, 2 weeks): death was not found in all of the rats | acute oral 50% lethal dose (LD50) ([7]; fasted female rats, observed 2 weeks): > 2,500 mg per kg body weight | Formation of dropsy and edema (formed numbers), per rabbit ([1]; male, New Zealand white, 1 h): 0 | Formation of erythema and dry crust (formed numbers), per rabbit ([1]; male, New Zealand white, 1 h): 1 | Formation of dropsy and edema (formed numbers), per rabbit ([1]; male, New Zealand white, 24 h): 0 | Formation of erythema and dry crust (formed numbers), per rabbit ([1]; male, New Zealand white, 24 h): 1 | Formation of dropsy and edema (formed numbers), per rabbit ([1]; male, New Zealand white, 48 h): 0 | Formation of erythema and dry crust (formed numbers), per rabbit ([1]; male, New Zealand white, 48 h): 0 | Formation of dropsy and edema (formed numbers), per rabbit ([1]; male, New Zealand white, 72 h): 0 | Formation of erythema and dry crust (formed numbers), per rabbit ([1]; male, New Zealand white, 72 h): 0 | Total formed numbers after 24 hours and 72 hours ([1]; male, New Zealand white, rabbit): Total formed numbers after 24 hours and 72 hours: 3 | Formation of dropsy and edema (formed numbers) [1, 28]: 0 | Formation of dropsy and edema, Total of three rabbits [1, 28]: 0 | Formation of erythema and dry crust (formed numbers) [1, 28]: 0 | Formation of erythema and dry crust, Total of three rabbits [1, 28]: 3 | skin reaction observed ([1]; male, New Zealand white, rabbit, 4 h): very slight red spots were observed within 24 hours, but became normal when observed after 48 hours | Formation of dropsy and edema (formed numbers) [1, 29]: 0 | Formation of dropsy and edema, Total of three rabbits [1, 29]: 0 | Formation of erythema and dry crust (formed numbers) [1, 29]: 0 | Formation of erythema and dry crust, Total of three rabbits [1, 29]: 3 | Formation of dropsy and edema (formed numbers) [1, 30]: 0 | Formation of dropsy and edema, Total of three rabbits [1, 30]: 0 | Formation of erythema and dry crust (formed numbers) [1, 30]: 0 | Formation of erythema and dry crust, Total of three rabbits [1, 30]: 0 | Formation of dropsy and edema (formed numbers) [1, 31]: 0 | Formation of dropsy and edema, Total of three rabbits [1, 31]: 0 | Formation of erythema and dry crust (formed numbers) [1, 31]: 0 | Formation of erythema and dry crust, Total of three rabbits [1, 31]: 0 | skin stimulation ([1]; rabbit): skin stimulation was not observed | stimulation classification (United Nations recommendation GHS) ([1]; rabbit): does not come under a stimulus substance | pH of solution [2]: 3.1 | salt damage evaluation [3, 8]: 0 | salt damage evaluation [3, 9]: 0 | salt damage evaluation [3, 10]: 1 | salt damage evaluation [3, 11]: 2 | salt damage evaluation [3, 12]: 3 | salt damage evaluation [3, 13]: 0 | salt damage evaluation [3, 14]: 0 | salt damage evaluation [3, 15]: 0 | salt damage evaluation [3, 16]: 1 | salt damage evaluation [3, 17]: 2 | salt damage evaluation [3, 18]: 0 | salt damage evaluation [3, 19]: 1 | salt damage evaluation [3, 20]: 2 | salt damage evaluation [3, 21]: 3 | salt damage evaluation [3, 22]: 4 | salt damage evaluation [3, 23]: 0 | salt damage evaluation [3, 24]: 1 | salt damage evaluation [3, 25]: 1 | salt damage evaluation [3, 26]: 2 | salt damage evaluation [3, 27]: 3
